In brackets after ≈: the same amount, converted by molar mass. Several values for one entry are separate records, joined by “and”; a condition that tells them apart may be missing. Equal values may be shown once. Read-outs that look alike come from different tables or passages of the source.
Tests used:
[1] = Determination of stability under accelerated testing condition (HPLC total impurities); format: physicochemical; conditions: (40±2)°C, relative humidity (75±5)%, Batch 1-3 on separate table lines
Description: Conditions for chromatogram: octadecyl silane chemically bonded silica was used as a filler; a mixed solution wherein methanol-acetonitrile-phosphate buffer (10 mM/L, pH adjusted to 2.7 with phosphoric acid)=40:20:40 was used as mobile phase; column temperature was 40° C.; detecting wavelength was 220 nm. The purity of each of the products in the above described Example was determined using internal standard method. […] The stability of each of the batches was studied via High Performance Liquid Chromatography (HPLC) and the content percentage of the total related substances (total impurities) was determined in addition to the peaks of Agomelatine and acid radicals.

[2] = pH 7
[3] = Determination of water solubility by external standard method
physchem = conditions: thermodynamic from solid

| Compound | total impurities % (total related substances) ([1]; time 0 month) | total impurities % (total related substances) ([1]; time 1 month) | total impurities % (total related substances) ([1]; time 2 months) | total impurities % (total related substances) ([1]; time 3 months) | total impurities % (total related substances) ([1]; time 6 months) | Agomelatine content (solubility) [2] | Agomelatine content (solubility) ([3]; pH = 7.0 buffer solution) | Agomelatine content (solubility) ([3]; pury water) | solubility (physchem; pH 7, aqueous buffer) | solubility (physchem; simulated gastric fluid) | solubility (physchem; water) |
| --- | --- | --- | --- | --- | --- | --- | --- | --- | --- | --- | --- |
| COc1ccc2cccc(CCNC(C)=O)c2c1.CS(=O)(=O)O [Agomelatine methanesulfonic acid complex] | 0.21% and 0.22% and 0.24% | 0.22% and 0.24% | 0.22% and 0.23% and 0.25% | 0.23% and 0.25% | 0.23% and 0.24% and 0.26% | 0.32 mg/mL | – | – | – | – | – |
| Agomelatine sulfuric acid complex | 0.11% and 0.12% and 0.14% | 0.12% and 0.14% | 0.12% and 0.13% and 0.15% | 0.13% and 0.15% | 0.13% and 0.14% and 0.16% | – | 0.33 mg/mL | 0.34 mg/mL | – | – | – |
| Agomelatine benzenesulfonic acid complex | 0.11% and 0.12% and 0.14% | 0.12% and 0.14% | 0.12% and 0.14% and 0.16% | 0.14% and 0.16% | 0.14% and 0.15% and 0.17% | – | – | – | – | – | – |
| COc1ccc2cccc(CCNC(C)=O)c2c1 [Agomelatine crystallographic form II, N-[2-(7-methoxyl-1-naphthyl)ethyl]acetamide] | – | – | – | – | – | – | – | – | 260 µg/mL (≈ 1070 µM) | 290 µg/mL (≈ 1190 µM) | 270 µg/mL (≈ 1110 µM) |

From patent US9409857B2 (SHANGHAI RIGHTHAND PHARMTECH. CO., LTD., priority 2012, dated 2016)
